Measurements published in ChEMBL document CHEMBL1201862, “PubChem BioAssay data set” (2004).
Active and inactive are the calls of the source.

Legend:
[1] = molecular target: Luciferin 4-monooxygenase (Photinus pyralis, UniProt P08659); test: inhibition of purified Photinus pyralis luciferase – biochemical, luminescence, dose response (AID 1891)
[2] = molecular target: Long-chain-fatty-acid--AMP ligase FadD28 (Mycobacterium tuberculosis, UniProt P9WQ59); test: Fluorescence polarization aasay to screen for inhibitors that compete for the binding of FadD28 to a bisubstrate Measured in Biochemical System Using Plate Reader - 2147-01_Inhibitor_Dose_CherryPick_Activity.; type: functional, Mycobacterium tuberculosis H37Rv
Chain of Long-chain-fatty-acid--AMP ligase FadD28 (P9WQ59 whole entry): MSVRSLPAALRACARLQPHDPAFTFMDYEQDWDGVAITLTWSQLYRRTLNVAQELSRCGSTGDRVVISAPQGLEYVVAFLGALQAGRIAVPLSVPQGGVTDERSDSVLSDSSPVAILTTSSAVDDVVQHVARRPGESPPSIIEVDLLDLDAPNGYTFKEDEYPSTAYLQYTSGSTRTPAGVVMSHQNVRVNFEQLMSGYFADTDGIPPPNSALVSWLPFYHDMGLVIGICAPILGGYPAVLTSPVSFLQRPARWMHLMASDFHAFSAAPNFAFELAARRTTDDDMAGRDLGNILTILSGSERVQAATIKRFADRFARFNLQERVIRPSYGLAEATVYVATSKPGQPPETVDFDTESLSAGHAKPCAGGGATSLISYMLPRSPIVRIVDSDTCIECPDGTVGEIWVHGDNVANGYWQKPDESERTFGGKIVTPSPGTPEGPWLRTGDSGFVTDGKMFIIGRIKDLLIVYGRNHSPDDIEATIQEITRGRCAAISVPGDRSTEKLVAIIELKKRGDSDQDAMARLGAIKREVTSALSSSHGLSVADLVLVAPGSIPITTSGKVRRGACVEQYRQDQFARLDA

[3] = molecular target: T1, Mannose-6-phosphate isomerase (Homo sapiens, UniProt P34949); test: MPI inhibition at elevated mannose 6-phosphate – biochemical, fluorescence intensity, high mannose 6-phosphate, primary screen (AID 1220)
T1 sequence (P34949 whole entry): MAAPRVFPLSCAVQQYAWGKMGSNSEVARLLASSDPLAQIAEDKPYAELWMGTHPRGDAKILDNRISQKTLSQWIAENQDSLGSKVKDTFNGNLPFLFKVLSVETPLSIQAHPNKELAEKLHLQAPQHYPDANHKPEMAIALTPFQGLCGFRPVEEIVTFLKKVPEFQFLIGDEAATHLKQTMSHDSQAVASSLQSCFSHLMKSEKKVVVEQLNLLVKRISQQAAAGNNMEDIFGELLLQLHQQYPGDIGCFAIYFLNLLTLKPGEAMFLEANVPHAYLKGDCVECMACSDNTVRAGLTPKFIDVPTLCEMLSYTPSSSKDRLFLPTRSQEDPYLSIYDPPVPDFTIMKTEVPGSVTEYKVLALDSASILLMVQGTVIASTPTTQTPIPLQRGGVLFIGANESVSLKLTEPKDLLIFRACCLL

[4] = cells
[5] = molecular target: T2, Oxysterols receptor LXR-beta (Homo sapiens, UniProt P55055); type: functional, cell-based;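 note: Cell-based luminescence dose-response assay of agonist activity at LXR, run as a confirmatory counterscreen to a daf-12 agonist screen; HEK293 cells with Gal4-LXR fusion and GAL4-driven luciferase reporter; agonist potency from rising luciferase signal of a Gal4-LXR reporter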
T2 sequence (P55055 whole entry): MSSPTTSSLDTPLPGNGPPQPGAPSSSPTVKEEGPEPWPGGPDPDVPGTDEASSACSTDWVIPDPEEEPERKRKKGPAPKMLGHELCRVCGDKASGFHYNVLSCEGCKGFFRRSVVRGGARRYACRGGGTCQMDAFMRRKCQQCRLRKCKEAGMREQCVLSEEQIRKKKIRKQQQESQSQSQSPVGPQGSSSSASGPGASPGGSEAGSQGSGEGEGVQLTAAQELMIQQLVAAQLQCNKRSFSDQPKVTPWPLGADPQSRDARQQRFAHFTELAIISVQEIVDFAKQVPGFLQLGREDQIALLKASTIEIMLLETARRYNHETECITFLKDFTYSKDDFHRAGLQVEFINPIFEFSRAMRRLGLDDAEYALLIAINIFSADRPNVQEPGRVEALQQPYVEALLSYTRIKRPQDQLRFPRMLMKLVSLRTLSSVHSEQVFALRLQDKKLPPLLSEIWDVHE

[6] = Luminescence Cell-Based Dose Confirmation HTS to Identify Inhibitors of Platelet Dense Granule Release. [Related pubchem assays: 1663 (Primary HTS), 1678 (Summary of Project)]; type: functional
[7] = molecular target: Paired box protein Pax-8 (Homo sapiens, UniProt Q06710); test: PAX8 transcriptional activity inhibition in RMG-I – RMG-I cells, luciferase, cherry-pick, dose response (AID 687027); type: functional, cell-based;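 note: luciferase reporter driven by Pax8 target thyroperoxidase promoter measured by SteadyGlo luminescence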
Chain of Paired box protein Pax-8 (Q06710 whole entry): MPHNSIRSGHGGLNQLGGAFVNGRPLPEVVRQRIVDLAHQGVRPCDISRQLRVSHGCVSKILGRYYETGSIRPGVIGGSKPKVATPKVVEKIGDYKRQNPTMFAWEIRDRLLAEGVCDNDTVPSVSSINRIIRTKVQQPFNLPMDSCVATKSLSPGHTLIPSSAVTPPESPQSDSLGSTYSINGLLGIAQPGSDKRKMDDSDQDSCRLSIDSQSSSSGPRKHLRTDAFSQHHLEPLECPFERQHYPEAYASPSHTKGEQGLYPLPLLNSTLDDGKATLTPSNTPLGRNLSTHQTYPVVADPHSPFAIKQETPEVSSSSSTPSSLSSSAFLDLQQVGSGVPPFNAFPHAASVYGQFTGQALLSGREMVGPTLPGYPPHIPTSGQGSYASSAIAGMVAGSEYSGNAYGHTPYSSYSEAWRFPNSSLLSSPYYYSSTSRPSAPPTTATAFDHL

[8] = blockade of melanocortin 4 receptor signaling – cell-based, plate reader, cherry pick, counter-screen for LGR2 antagonist project, dose response (AID 743444); type: functional;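 note: transfected HEK 293 cells stimulated with alpha-MSH peptide; potency of inhibitors of the alpha-MSH evoked signal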
[9] = A549 cell cytotoxicity, dose response, cytotoxicity control, plate reader, cherry-pick, antagonist series (AID 743412); type: functional, cell-based
[10] = HIV-1 AD8 envelope cell-cell fusion blockers – cherry-pick, dose response (AID 652062); type: functional, cell-based;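 note: luciferase signal from cell-cell fusion driven by HIV-1 clade B AD8 Env; potency is for inhibitors of fusion seen as a drop in luminescence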
[11] = general cell-killing toxicity readout – plate reader, dry powder samples, cytotoxicity control for PAX8 inhibitor project, dose response (AID 743021); type: functional, cell-based
[12] = IGROV1 cell killing – plate reader, dry powder samples, PAX8 inhibitor project, dose response (AID 743043); type: functional, cell-based; conditions: IGROV-1
[13] = viability loss in HEK293 cells – cell-based, plate reader, cherry-picked samples, cytotoxicity control, dose response (AID 743446); type: functional
[14] = blockers of bursicon-stimulated LGR2 cAMP reporter – cell-based, HEK293, CRE-luciferase reporter, cherry pick, set 2, dose response (AID 743343); type: functional;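 note: transfected cells were stimulated with diluted bursicon conditioned medium after compound addition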
[15] = toxicity toward immortalized ovarian surface epithelium – cell-based, plate reader, dry powder samples, cytotoxicity control for PAX8 inhibitor project, dose response (AID 743045); type: functional
[16] = reduced cellular PGC1a acetyl-lysine signal – cell-based, cherry-picked samples, dose response (AID 720514); type: functional;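 note: potency may reflect raised or lowered acetylation signal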
[17] = OVCAR8 cell viability loss – plate reader, dry powder samples, PAX8 project, dose response (AID 743197); type: functional, cell-based; conditions: OVCAR-8
[18] = OVCAR-3 cell viability loss – plate reader, dry powder samples, PAX8 inhibitor project, dose response (AID 743044); type: functional, cell-based
[19] = growth inhibition of yeast DHODH-expressing 3D7 parasites – SYBR Green, dry powder samples, dose response (AID 1159570); type: functional, cell-based;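 note: parasite growth measured after 72 hours of compound exposure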
[20] = growth inhibition of PfATP4-mutant resistant parasites – NITD609-resistant line, SYBR Green, dry powder, dose response (AID 1159571); type: functional, cell-based;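 note: parasites synchronized at ring stage by sorbitol before testing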
[21] = toxicity to human hepatoma HepG2 cells – cell-based, cherry-picked samples, cytotoxicity control, dose response (AID 1159577); type: functional
[22] = Dd2 malaria parasite growth inhibition potency – SYBR Green, dry powder samples, dose response (AID 1159566); type: functional, cell-based;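 note: potency for growth inhibition with lower SYBR green DNA signal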
[23] = toxicity toward HepG2 liver cells – cell-based, plate reader, cherry-pick, antagonist series, cytotoxicity control, dose response (AID 743416); type: functional
[24] = P. falciparum Dd2 growth inhibitors, dose response, SYBR Green, cherry-picked samples (AID 1159567); type: functional, cell-based
[25] = toxicity to human HepG2 hepatoma cells – cell-based, plate reader, dry powder samples, cytotoxicity control, dose response (AID 1159569); type: functional;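 note: inhibitor potency with signal falling toward the positive control level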
[26] = A2780 cell killing – plate reader, dry powder samples, cytotoxicity control, dose response (AID 743046); type: functional, cell-based
[27] = rise of 2N DNA cells, HeLa – IC50, dose response (AID 1117349); type: functional, cell-based
[28] = rise of 4N DNA cells, HeLa – IC50, dose response (AID 1117351); type: functional, cell-based
[29] = M. tuberculosis H37Rv growth inhibitors, H37Rv strain (AID 1626); type: functional
[30] = molecular target: RNA-editing ligase 1, mitochondrial (Trypanosoma brucei brucei, UniProt P86926); test: inhibition of trypanosome RNA editing ligase – biochemical, fluorescence, Trypanosoma brucei, dose response (AID 1117295); type: functional
Chain of RNA-editing ligase 1, mitochondrial (P86926 whole entry): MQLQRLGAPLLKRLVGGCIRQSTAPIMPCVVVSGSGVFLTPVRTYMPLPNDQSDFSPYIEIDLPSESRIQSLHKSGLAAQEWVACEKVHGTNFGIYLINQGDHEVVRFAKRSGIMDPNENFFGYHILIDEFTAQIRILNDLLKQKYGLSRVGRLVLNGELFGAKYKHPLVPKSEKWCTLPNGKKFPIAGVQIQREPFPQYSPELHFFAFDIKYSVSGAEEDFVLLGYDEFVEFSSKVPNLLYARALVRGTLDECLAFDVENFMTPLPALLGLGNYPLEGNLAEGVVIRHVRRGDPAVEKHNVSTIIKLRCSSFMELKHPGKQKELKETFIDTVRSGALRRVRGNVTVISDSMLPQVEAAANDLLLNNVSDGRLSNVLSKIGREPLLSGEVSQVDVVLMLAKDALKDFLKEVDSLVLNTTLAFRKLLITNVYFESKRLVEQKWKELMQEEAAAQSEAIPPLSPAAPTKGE

[31] = molecular target: Cytochrome P450 2D6 (Homo sapiens, UniProt P10635);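 note: CYP2D6 member of a cytochrome P450 panel assay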
Chain of Cytochrome P450 2D6 (P10635 whole entry): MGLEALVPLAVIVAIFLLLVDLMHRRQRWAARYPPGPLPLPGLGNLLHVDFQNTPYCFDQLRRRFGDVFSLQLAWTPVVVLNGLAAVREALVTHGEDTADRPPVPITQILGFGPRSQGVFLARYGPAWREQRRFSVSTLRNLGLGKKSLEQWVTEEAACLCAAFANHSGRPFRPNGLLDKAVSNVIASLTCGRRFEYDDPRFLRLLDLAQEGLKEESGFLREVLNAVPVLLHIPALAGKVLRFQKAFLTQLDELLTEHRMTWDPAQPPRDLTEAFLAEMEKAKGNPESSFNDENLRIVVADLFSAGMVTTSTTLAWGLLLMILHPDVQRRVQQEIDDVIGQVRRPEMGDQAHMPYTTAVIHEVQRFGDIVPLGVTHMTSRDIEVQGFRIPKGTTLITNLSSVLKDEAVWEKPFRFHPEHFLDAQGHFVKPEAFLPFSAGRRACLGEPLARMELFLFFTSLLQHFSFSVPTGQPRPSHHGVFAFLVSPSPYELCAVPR

Chain of Luciferin 4-monooxygenase (P08659 whole entry): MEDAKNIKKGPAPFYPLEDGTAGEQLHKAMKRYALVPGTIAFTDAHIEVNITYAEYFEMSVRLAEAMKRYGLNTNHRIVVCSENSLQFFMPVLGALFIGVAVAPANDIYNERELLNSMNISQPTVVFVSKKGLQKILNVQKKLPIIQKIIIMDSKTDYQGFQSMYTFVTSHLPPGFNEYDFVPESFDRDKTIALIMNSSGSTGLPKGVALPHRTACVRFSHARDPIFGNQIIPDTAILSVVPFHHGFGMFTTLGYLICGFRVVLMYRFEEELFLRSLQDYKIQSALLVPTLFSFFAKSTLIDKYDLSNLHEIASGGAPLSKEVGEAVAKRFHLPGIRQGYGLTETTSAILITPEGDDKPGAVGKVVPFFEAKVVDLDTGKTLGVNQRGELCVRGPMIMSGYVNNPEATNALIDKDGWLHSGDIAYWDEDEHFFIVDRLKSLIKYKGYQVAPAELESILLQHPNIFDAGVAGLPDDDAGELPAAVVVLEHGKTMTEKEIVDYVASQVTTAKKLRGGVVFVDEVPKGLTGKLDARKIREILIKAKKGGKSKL

With `C/N=c1\scc(-c2ccccc2F)n1/N=C/c1ccc(O)c(O)c1O` the EC50 [1] was 1.68 µM (active), the AC50 [2] was 32 µM (inactive) and the IC50 [3] was 25.8 µM (active). The EC50 [4] was > 67.5 µM (inactive), the EC50 [5] was > 67.5 µM (inactive) and the EC50 [6] was 2.46 µM (active).

For `COc1ccccc1C#Cc1ccc([C@H]2[C@H](C#N)N(C(=O)C3CCCC3)[C@H]2CO)cc1`, the AC50 [7] was 4.38 µM (active), the AC50 [8] was 3.59 µM (active) and the AC50 [9] was > 52 µM (inactive). For the same molecule, the AC50 [10] was 9.51 µM (active), the AC50 [11] was 19.8 µM (active) and the AC50 [12] was 32.2 µM (active). For the same molecule, the AC50 [13] was > 52 µM (inactive), the AC50 [14] was 9.13 µM (active) and the AC50 [15] was 21.8 µM (active). The AC50 [16] was 4.17 µM (active), the AC50 [17] was 10.6 µM (active) and the AC50 [18] was 8.21 µM (active).

In the case of `C[C@@H]1CN([C@@H](C)CO)C(=O)c2c(c3ccccc3n2C)-c2ccccc2CO[C@@H]1CN(C)S(=O)(=O)c1ccc(C(F)(F)F)cc1`, the AC50 [7] is reported as 6.8 µM (active), the AC50 [8] is reported as 54.3 µM (active) and the AC50 [9] is reported as 22.3 µM (active). The AC50 [19] was 2.24 µM (active), the AC50 [12] was 58.4 µM (active) and the AC50 [13] was 34.5 µM (active). For the same molecule, the AC50 [20] was 2.21 µM (active), the AC50 [21] was > 39 µM (inactive) and the AC50 [14] was 51.6 µM (active). For the same molecule, the AC50 [22] was 1.63 µM (active), the AC50 [23] was 21.9 µM (active) and the AC50 [24] was 2.57 µM (active). For the same molecule, the AC50 [25] was 20.9 µM (active).

For `COc1ccc(S(=O)(=O)N2CCCCN3[C@H](CO)[C@@H](c4ccc(C#CC(C)C)cc4)[C@H]3C2)cc1`, the AC50 [7] was 12 µM (active), the AC50 [26] was 27.1 µM (active) and the AC50 [17] was > 70 µM (inactive). The AC50 [18] was 34 µM (active).

For `COC(=O)c1nc(Cl)c(Cl)nc1N`, the IC50 [27] was 0.334 µM (active) and the IC50 [28] was 0.511 µM (active).

With `COc1ccc(/N=C/C2=C(O)OCC2)cc1` the IC50 [29] was > 100 µM (active).

For `COc1cccc(CN(C)C(=O)[C@H]2O[C@@H](n3cnc4c(=O)[nH]c(N)nc43)[C@H](O)[C@@H]2O)c1`, the IC50 [30] was > 96.6 µM (inactive).

In the case of `O=C(C1CCC1)N1C[C@@H]2N[C@H](C1)[C@@H]2c1ccc(-c2ccccc2F)cc1`, the AC50 [19] is reported as 3.03 µM (active), the AC50 [20] is reported as 3.47 µM (active) and the AC50 [22] is reported as 2.5 µM (active). The AC50 [24] was 2.24 µM (active) and the AC50 [25] was 19.5 µM (active).

With `CCCCc1ccc2[nH]c(NC(=O)OC)nc2c1` [PARBENDAZOLE] the IC50 [27] was 0.0104 µM (active), the IC50 [28] was 0.0106 µM (active) and the AC50 [31] was 1.58 µM (inconclusive).
